Laboratory results as given in publication PMC6403188, “Species-Specific Structural Requirements of Alpha-Branched Trehalose Diester Mincle Agonists” (Frontiers in Immunology, 2019).
“Also recorded” adds a separate entry of the source.

How the values were obtained:
BALB/c mice [1] = assay: Splenocyte restimulation with M72 and intracellular cytokine staining of CD4/CD8 T cells after vaccination; assay type: in vivo, mouse; settings: for IL-17+ CD4+ and CD8+ T cells (Th17 response) after M72 re-stimulation: 0.125 μg antigen plus 2, 10, or 50 nmol liposomal adjuvant, i.m. two times, spleens 5 days post-secondary
Experimental: (§1) Animal studies were carried out in an OLAW and AAALAC accredited vivarium in accordance with University of Montana's IACUC guidelines for the care and use of laboratory animals. Groups of 10–14 BALB/c mice were vaccinated intramuscularly with 0.125 μg M72 antigen and indicated concentrations of various CLR adjuvant candidates (liposomal formulations) in 50 μl total volume per injection. After 14 days, blood and serum samples were collected and a secondary vaccination was administered. At day 19 (5 days post-secondary vaccination), 3–6 mice per group were euthanized and spleens were harvested the assessment of cell-mediated immunity. At day 28 (14 days post booster vaccination) the remaining 7 mice in each group were euthanized and blood was collected for the measurement of M72 specific humoral immunity.
Spleens were harvested from vaccinated mice 5 days after secondary injections and splenocytes were harvested by disruption of the spleens through a 100 μm filter. Red blood cells were lysed by incubation with red blood cell lysis buffer (Sigma) for 5 min followed by washing in 1x PBS. Cells were plated in a 96 well plate at 5 × 10^6 cells/well in 200 μL complete RPMI1640 media. Cells were incubated with 1 μg/mL M72 antigen for […] at 37°C. After 7 h, GolgiPlug (Brefeldin A, BD Biosciences) was added to each well and incubated at 37°C for a further 12 h. Following incubation, cells were stained with the cell surface antibodies against CD3e PerCP-Cy5.5 (Tonbo Biosciences, 145-2C11), CD4a APC-Cy7 (Tonbo Biosciences, RM4-5) and CD8a PE-Cy7 (Tonbo Biosciences, 53–6.7) and viability stain (Ghost 510, Tonbo Biosciences). Cells were treated with cytofix/cytoperm (BD) and stained with anti-IFNγ PE-CF594 (BD, XMG1.2), anti-IL2 FITC (Biolegend, JES6-5H4), anti-IL-5 PE (BD, TRFK5), anti-IL17A BV421 (Biolegend, TC11-18H10.1), and anti-TNFα APC (Invitrogen, MP6-XT22). Data was collected using an LSRII flow cytometer (BD) and analyzed using FlowJo 10.0 software (TreeStar). Splenocytes were gated on live, single cells, then CD3+ to identify all T cells, then gated as CD4+CD8- to identify CD4 T cells or CD4-CD8+ to identify CD8 T cells. Gates for intracellular cytokine positive CD4 or CD8 T cells are set based on re-stimulation of naïve splenocytes. Gating strategies for the detection of antigen specific CD4+ and CD8+ T cells are outlined in Supplemental Figure 3.
Figure 7 Induction of IL-17 producing CD4+ and CD8+ T cells from an αTDE adjuvanted M72 vaccine. BALB/c mice, 10 per group, were immunized two times i.m. with 0.125 μg antigen plus 2, 10, or 50 nmol of the indicated adjuvant. Spleens were harvested from a subset of 3 mice per group at 5 days post-secondary vaccination. Splenocytes were restimulated with 1 μg/mL whole antigen and transport inhibitors followed by surface staining for CD3, CD4, and CD8 and then intracellular cytokine staining. Data represent percentage of live, CD3^+/CD4^+, left, or CD3^+/CD8^+, right, cells that are also positive for IL-17A upon stimulation.
(§2) Figure 8 B16 liposomes biases a Th17/Th2 adaptive immune response. BALB/c mice, 14 per group, were immunized twice, 14 days apart, i.m with 0.1, 1, or 10 μg of M72 antigen plus either blank DDA:DSPC liposome or B16 loaded (10 nmol final dose) liposome. (A,B) M72-specific serum antibody titers at 14 days post-secondary vaccination. (C–F) Spleens were harvested from mice at 5 days post-secondary vaccination and restimulated with 1 μg/mL whole antigen and transport inhibitors followed by surface staining for CD3, CD4, and CD8 and then intracellular cytokine staining. (C) Percent of live, CD3^+/CD4^+/IL5+ cells, (D) Percent of live, CD3^+/CD8^+/IFNγ+ cells, (E) Percent of live, CD3^+/CD4^+/IL17+ cells, and (F) Percent of live, CD3^+/CD8^+/IL17+ cells. ^*p < 0.05, ^**p < 0.01, ^****p < 0.001.
Supplemental Figure 10. Production of IFNɣ, IL-2, IL-5 or TNFα by CD4 or CD8 T cells in response to various CLR compounds. […]

BALB/c mice [2] = assay: Anti-M72 serum antibody ELISA after i.m. vaccination with M72 antigen plus liposomal adjuvant; assay type: in vivo, mouse; settings: for Anti-M72 serum IgG1 and IgG2a antibody: 0.125 μg M72 antigen plus 2, 10, or 50 nmol adjuvant in DDA:DSPC liposomes, i.m. two times, 14 days post-secondary vaccination
Experimental: as §1
Sera was collected from mice 14 days post-primary and 14 days post-secondary injection and diluted according to the expected antibody response (between 1:10 and 1:5000). Plates were coated with 100 μl of the full-length M72 protein at 1 μg/mL. Following washing (PBS plus tween 20) and blocking (SuperBlock, Scytek Laboratories), plates were incubated with diluted serum for 1 h followed by anti-mouse IgG, IgG1, or IgG2a-HRP secondary antibody (Bethyl Laboratories) and TMB substrate (BD). Plates were read at 450 nm. Antibody titers were determined by calculating titer of each sample at OD 0.3.
Figure 6 Serum antibody levels from mice in response to vaccination with recombinant M72 antigen and various αTDE compounds. BALB/c mice, 10 per group, were vaccinated two times i.m. with 0.125 μg antigen plus 2, 10, or 50 nmol of the indicated adjuvant. Serum was analyzed from 7 mice at 14 days post-secondary vaccination for presence of anti-M72 IgG1 and IgG2a antibodies via ELISA.
as §2

[3] = tested on: Hek Blue human or mouse Mincle-expressing cells; assay type: cell-based; settings: top concentrations, 24 h; compared with vehicle only-treated cells
RAW264.7 cells = assay: Liposome formulations tested in RAW264.7 cells, TNFα ELISA; assay type: cell-based, mouse; settings: formulated in DDA:DSPC liposome, 24 hours

Row | SMILES | IL-5 production in CD8+ T cells (BALB/c mice [1]; 2 nmol adjuvant, 0.125 μg antigen, over liposome control) | IL-5 production in CD8+ T cells (BALB/c mice [1]; 50 nmol adjuvant, 0.125 μg antigen, over naïve and liposome control) | IL-17+ CD4+ and CD8+ T cells (Th17 response) after M72 re-stimulation (BALB/c mice [1]) | TNFα production by T cells (BALB/c mice [1]; highest dose evaluated, 0.125 μg antigen, compared to controls) | Anti-M72 serum IgG1 and IgG2a antibody (BALB/c mice [2]) | Frequencies of IFNγ+ CD8 T cells or IFNγ+ CD4 T cells (BALB/c mice [1]; 10 nmol B16, 0.1, 1 or 10 μg M72, between groups) | IL-2+ CD4 T cells (BALB/c mice [1]; 10 nmol B16, 0.1, 1 or 10 μg M72, compared to blank liposome) | Frequencies of TNFα+ CD4 T cells (BALB/c mice [1]; 10 nmol B16, compared to antigen matched blank liposome groups) | Frequencies of IL-5+ CD4 T cells (BALB/c mice [1]; 10 nmol B16, highest antigen dose tested) | Frequencies of IL-5+, IL-2+, and TNFα+ CD8 T cells (BALB/c mice [1]; 10 nmol B16, highest dose of antigen) | Frequencies of IL-5+, IL-2+, and TNFα+ CD8 T cells (BALB/c mice [1]; 10 nmol B16, lower doses of antigen, compared to antigen plus blank liposome) | Frequencies of IL-5+ CD4 T cells (BALB/c mice [1]; 10 nmol B16, two lower doses of antigen, compared to antigen plus blank liposome) | Frequencies of IL-17+ CD4 and CD8 T cells (BALB/c mice [1]; 10 nmol liposomal B16 with 0.1 μg and 1 μg M72/mouse, compared to antigen plus blank liposomes) | Frequencies of IL-17+ CD4 and CD8 T cells (BALB/c mice [1]; 10 nmol liposomal B16 with 10 μg M72, compared to antigen plus blank liposome) | Cell viability of Mincle HEK cells [3] | TNFα secretion from RAW cells in response to liposome formulation (RAW264.7 cells) | M72 specific serum IgG1 and IgG2a antibody titers (BALB/c mice [2]; 10 nmol B16 liposome, increasing doses of M72 antigen (0.1, 1, 10 μg), 14 dp2) | M72 specific serum antibody titers (BALB/c mice [2]; 10 nmol B16 liposome, lowest dose of M72 antigen (0.1 μg))
1 | CCCCCCCCCCCCCCCCCCCCC(CCCCCCCCCCCCCCCCCCCC)C(=O)OC[C@H]1O[C@H](O[C@H]2O[C@H](COC(=O)C(CCCCCCCCCCCCCCCCCCCC)CCCCCCCCCCCCCCCCCCCC)[C@@H](O)[C@H](O)[C@H]2O)[C@H](O)[C@@H](O)[C@@H]1O [Compound B42] | increased | increased | able to drive superior Th17 responses | increased compared to controls | neither compound significantly enhanced | – | – | – | – | – | – | – | – | – | – | – | – | –
2 | CCCCCCCC(CCCCCCC)C(=O)OC[C@H]1O[C@H](O[C@H]2O[C@H](COC(=O)C(CCCCCCC)CCCCCCC)[C@@H](O)[C@H](O)[C@H]2O)[C@H](O)[C@@H](O)[C@@H]1O [Compound B16] | – | – | greatest frequency of IL-17+ cells; also recorded: more effective | – | neither compound significantly enhanced | no differences | similarly increased only in the middle dose | not increased | no difference is observed | not at the highest dose | also increased | similarly increased | significantly higher frequencies | not significant | less substantial decreases | higher levels of TNFα secretion compared to B42 | significantly improved | did not exhibit significantly higher antibody titers
